This note sets out measurements from PubChem BioAssay (NCI).

Molecules are shown by their SMILES.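 Cells were grown in 96-well plates and exposed to each compound for 48 hours at five concentrations; endpoints were interpolated linearly between bracketing concentrations, or set to the highest concentration if not reached. TGI denotes the concentration required for complete inhibition of growth.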

Among the test systems are KM12 colon; LOX IMVI melanoma; HT29 colon; SK-MEL-5 melanoma; EKVX NSCLC; HS 578T breast; A498 renal; COLO 205 colon; OVCAR-4 ovarian; IGROV1 ovarian; SF-295 CNS; SK-MEL-28 melanoma; A549 NSCLC; UACC-257 melanoma; M14 melanoma; UO-31 renal; K-562 leukemia; NCI-H460 lung; SR leukemia.
What all share (experiment): DTP human tumour cell line panel, 48 h

A word on the TGI: it is the concentration giving total growth inhibition.

As for `COC(=O)c1cc(OS(=O)(=O)C(F)(F)F)c(=O)n2c1CCCC2`, the TGI with KM12 colon, with LOX IMVI melanoma, in the assay on HT29 colon, in the assay on SK-MEL-5 melanoma, with EKVX NSCLC and in the assay with HS 578T breast was greater than 100 µM each time. Also, the TGI with A498 renal, with COLO 205 colon, in the assay on OVCAR-4 ovarian, in the assay on IGROV1 ovarian, with SF-295 CNS and with SK-MEL-28 melanoma was greater than 100 µM in each case. For the same molecule, the TGI with A549 NSCLC, with UACC-257 melanoma, with M14 melanoma and in the assay on UO-31 renal was greater than 100 µM in each case.

For `CC(C)=NNc1snnc1C(N)=O`, the TGI in the assay with KM12 colon, in the assay with LOX IMVI melanoma, with HT29 colon, with SK-MEL-5 melanoma, in the assay on EKVX NSCLC and with HS 578T breast was greater than 100 µM in each case. In addition, the TGI in the assay on A498 renal, in the assay on COLO 205 colon, in the assay with IGROV1 ovarian, with SF-295 CNS, with SK-MEL-28 melanoma and with A549 NSCLC was greater than 100 µM throughout. Besides, the TGI in the assay on K-562 leukemia, in the assay with UACC-257 melanoma, with M14 melanoma and in the assay on UO-31 renal was greater than 100 µM each time.

In the case of `CCC(=O)NI1OC(=O)c2ccccc21`, the TGI with KM12 colon, in the assay on LOX IMVI melanoma, with HT29 colon, with SK-MEL-5 melanoma, in the assay on EKVX NSCLC and in the assay with A498 renal was greater than 100 µM in each case. In addition, the TGI in the assay with COLO 205 colon, in the assay with OVCAR-4 ovarian, in the assay on NCI-H460 lung, with IGROV1 ovarian, with SR leukemia and in the assay with SF-295 CNS was greater than 100 µM each time. Further, the TGI with SK-MEL-28 melanoma, with A549 NSCLC, in the assay on K-562 leukemia, in the assay on UACC-257 melanoma, with M14 melanoma and in the assay on UO-31 renal was greater than 100 µM in each case.

`COc1cc2c(oc(=O)c3c4occc4cc(OC)c23)c2cccc(OCc3ccccc3)c12`: the TGI was greater than 100 µM in the assay on KM12 colon; greater than 100 µM in the assay on LOX IMVI melanoma; greater than 100 µM with HT29 colon; greater than 100 µM in the assay on SK-MEL-5 melanoma; greater than 100 µM in the assay with EKVX NSCLC; 83.4 µM with A498 renal. The TGI in the assay with COLO 205 colon, with OVCAR-4 ovarian, in the assay with NCI-H460 lung, with IGROV1 ovarian, in the assay on SR leukemia and in the assay with SF-295 CNS was greater than 100 µM each time. Also, the TGI with SK-MEL-28 melanoma, with A549 NSCLC, in the assay with K-562 leukemia, with UACC-257 melanoma, in the assay on M14 melanoma and in the assay with UO-31 renal was greater than 100 µM in each case.

As for `Cc1ccc(S(=O)(=O)N2CCCSCCSCCCN(S(=O)(=O)c3ccc(C)cc3)CC2)cc1`, the TGI in the assay with KM12 colon, in the assay with HT29 colon, with SK-MEL-5 melanoma, in the assay with EKVX NSCLC, in the assay on HS 578T breast and in the assay on A498 renal was greater than 100 µM throughout. Besides, the TGI with COLO 205 colon, in the assay with OVCAR-4 ovarian, in the assay with NCI-H460 lung, in the assay with IGROV1 ovarian, in the assay with SF-295 CNS and in the assay with SK-MEL-28 melanoma was greater than 100 µM throughout. The TGI with A549 NSCLC, in the assay with UACC-257 melanoma, in the assay with M14 melanoma and in the assay on UO-31 renal was greater than 100 µM in each case.

Turning to `Cc1c(O)c(OC2OC(CO)C(O)C(O)C2O)cc2c1C=C[C@@H]1[C@@]2(C)C(=O)C[C@]2(C)[C@@H]([C@@](C)(O)C(O)/C=C/C(C)(C)O)[C@H](O)C[C@@]12C` (stereo partly drawn), the TGI with KM12 colon, in the assay with LOX IMVI melanoma, with HT29 colon, with SK-MEL-5 melanoma, with EKVX NSCLC and with A498 renal was greater than 100 µM in each case. Moreover, the concentration for total growth inhibition (TGI) in the assay with COLO 205 colon, in the assay with OVCAR-4 ovarian, with NCI-H460 lung, in the assay with IGROV1 ovarian, in the assay with SR leukemia and in the assay on SF-295 CNS was greater than 100 µM throughout. In addition, the TGI in the assay with SK-MEL-28 melanoma, with A549 NSCLC, in the assay on K-562 leukemia, in the assay on UACC-257 melanoma, in the assay with M14 melanoma and in the assay on UO-31 renal was greater than 100 µM throughout.

For `[N-]=[N+]=NC1(c2ccccc2)C(=O)C(Cl)=C(c2ccccc2)N(c2ccccc2)C1=O` (stereo not drawn), the TGI in the assay with KM12 colon, in the assay with LOX IMVI melanoma, in the assay with HT29 colon, with SK-MEL-5 melanoma, in the assay on EKVX NSCLC and in the assay with A498 renal was greater than 100 µM in each case. Besides, the TGI with COLO 205 colon, in the assay on OVCAR-4 ovarian, in the assay on NCI-H460 lung, with IGROV1 ovarian, in the assay with SR leukemia and in the assay with SF-295 CNS was greater than 100 µM throughout. In addition, the TGI with SK-MEL-28 melanoma, in the assay on A549 NSCLC, with K-562 leukemia, in the assay with UACC-257 melanoma, in the assay on M14 melanoma and in the assay with UO-31 renal was greater than 100 µM each time.

`COC(=O)[C@H](Cc1ccccc1)NC(=O)N(CCC#N)CCCCN(CCC#N)C(=O)N[C@@H](Cc1ccccc1)C(=O)OC`: the TGI in the assay on KM12 colon, with LOX IMVI melanoma, with SK-MEL-5 melanoma, with EKVX NSCLC, in the assay on HS 578T breast and with A498 renal was greater than 100 µM in each case. Besides, the TGI in the assay on COLO 205 colon, in the assay on OVCAR-4 ovarian, in the assay with NCI-H460 lung, in the assay with SF-295 CNS, in the assay on SK-MEL-28 melanoma and in the assay with A549 NSCLC was greater than 100 µM in each case. Also, the TGI with K-562 leukemia, in the assay with UACC-257 melanoma, in the assay with M14 melanoma and in the assay with UO-31 renal was greater than 100 µM in each case.

For the molecule `c1ccc2c(c1)nn1c3ccc4nonc4c3[n-][n+]21`, the concentration for total growth inhibition (TGI) in the assay on KM12 colon, in the assay on LOX IMVI melanoma, in the assay on HT29 colon, with SK-MEL-5 melanoma, in the assay with EKVX NSCLC and in the assay on A498 renal was greater than 100 µM throughout. Further, the TGI in the assay on COLO 205 colon, in the assay with OVCAR-4 ovarian, in the assay with NCI-H460 lung, in the assay with IGROV1 ovarian, in the assay on SR leukemia and in the assay on SF-295 CNS was greater than 100 µM in each case. The TGI in the assay with SK-MEL-28 melanoma, with A549 NSCLC, in the assay on K-562 leukemia, in the assay with UACC-257 melanoma, in the assay with M14 melanoma and in the assay with UO-31 renal was greater than 100 µM throughout.

With `C[C@@H](CC(=O)O)OC1OC(COC(=O)C(C)(C)C)C(OC(=O)C(C)(C)C)C(OC(=O)C(C)(C)C)C1OC(=O)C(C)(C)C` (stereo partly drawn), the TGI in the assay on KM12 colon was greater than 100 µM; with LOX IMVI melanoma, greater than 100 µM; in the assay with HT29 colon, greater than 100 µM; in the assay on SK-MEL-5 melanoma it was 98.4 µM; in the assay with EKVX NSCLC, greater than 100 µM; in the assay with HS 578T breast, greater than 100 µM. Moreover, the total growth inhibition concentration (TGI) is greater than 100 µM in the assay on A498 renal; greater than 100 µM with COLO 205 colon; 75.7 µM in the assay with NCI-H460 lung; greater than 100 µM with IGROV1 ovarian; greater than 100 µM in the assay on SF-295 CNS; greater than 100 µM with SK-MEL-28 melanoma. For the same molecule, the TGI in the assay with A549 NSCLC, in the assay on K-562 leukemia, with UACC-257 melanoma and with M14 melanoma was greater than 100 µM in each case.

For `O=S(=O)(O)c1cc(S(=O)(=O)O)c2cc(N=Nc3c(O)ccc4ccccc34)ccc2c1`, the TGI with KM12 colon, with LOX IMVI melanoma, with HT29 colon, in the assay with SK-MEL-5 melanoma, in the assay on EKVX NSCLC and in the assay on HS 578T breast was greater than 100 µM in each case. Besides, the TGI in the assay with COLO 205 colon, in the assay on OVCAR-4 ovarian, in the assay with IGROV1 ovarian, in the assay with SF-295 CNS, in the assay with SK-MEL-28 melanoma and with A549 NSCLC was greater than 100 µM throughout. Besides, the TGI with K-562 leukemia, in the assay with UACC-257 melanoma, in the assay with M14 melanoma and in the assay with UO-31 renal was greater than 100 µM throughout.

On to `O=C1CCC(=O)N1CNc1ccc2c(c1)S(=O)(=O)c1ccccc1O2`, for which the TGI in the assay on KM12 colon, with LOX IMVI melanoma, in the assay on HT29 colon, with SK-MEL-5 melanoma, with EKVX NSCLC and in the assay on HS 578T breast was greater than 100 µM in each case. Also, the TGI in the assay with A498 renal, in the assay with COLO 205 colon, in the assay on OVCAR-4 ovarian, with IGROV1 ovarian, in the assay on SF-295 CNS and in the assay on SK-MEL-28 melanoma was greater than 100 µM throughout. Also, the TGI in the assay on A549 NSCLC, in the assay with K-562 leukemia, with UACC-257 melanoma, in the assay with M14 melanoma and in the assay with UO-31 renal was greater than 100 µM throughout.
